Assay results published in patent US20040028646A1, “Particle formation” (priority 2002, published 2004).

Test system: lysozyme
Test: Retention of original lysozyme activity after Nektar SCF processing
Type: biochemical
Conditions: after Nektar SCF processing at 0° C., 100 bar

Experiment 8.1: unconjugated lysozyme subjected to Nektar SCF processing from 20 mg/ml aqueous solution
Retained original (pre-Nektar SCF) activity: 105%

Experiment 8.2: conjugate of the protein lysozyme with linear mPEG of 5 kDaltons
Retained original (pre-Nektar SCF) activity: 108%
